This note sets out measurements from ChEMBL document CHEMBL1141555, “Synthesis and biological activity of piperazine and diazepane amides that are histamine H3 antagonists and serotonin reuptake inhibitors” (Bioorg Med Chem Lett, 2008).

Holding throughout (type): ADME, organism-based
Series [1] can be described thus: Bioavailability in rat. The settings on record: in vivo.
Series [2] can be described thus: Volume of distribution at steady state in rat. The settings on record: in vivo, read-out: Vdss.
The nature of series [3]: Half life in iv dosed rat. The following applies: in vivo.
The nature of series [4]: Drug level in rat plasma at 10 mg/kg, po. On the set-up: dose 10 mg/kg, route oral.
Series [5] in a line: Drug level in rat brain at 10 mg/kg, po. On the set-up: dose 10 mg/kg, route oral.
A short description of series [6]: Clearance in rat. The following applies: in vivo.

Where only a bound is given, the exact number is not on record here.

`CNCc1cc(C(=O)N2CCN(C3CC3)CC2)ccc1Oc1ccc(Cl)c(Cl)c1` yielded a bioavailability in series [1] of 93%. Further, in series [2], the Vd was 13 L/kg. The half-life in series [3] is 966 min. The Cmax in series [4] and in series [5] was > 1000 nM throughout. Besides, the clearance in series [6] was 10.2 mL/min/kg.
